Reference: a melting point compilation (Tetko et al.; mined from patent text by program, amines drawn as free bases though some values may be those of a salt)

| Compound | melting point [°C] |
| --- | --- |
| CC(C)Oc1ncc(C#N)c(O)n1 | 166 |
| O=C1Cc2cccc3c2N1C(C(F)(F)F)=C(F)S3 | 128 to 130 |
| Cc1cn(CC(O)(CC(C)(C)c2cccc3c2OCC3)C(F)(F)F)c(CO)c(C)c1=O (centres undefined) | 160 to 162 |
| CC(C)(C)c1csc(-c2nc(Cl)c(Cl)[nH]2)n1 | 157 to 158 |
| CCOP(=O)(OCC)c1ccc(/C=C/c2ccc3c(c2)C(C)(C)CCC3(C)C)cc1 | 83 to 84 |
| Cn1c(CC(=O)O)ccc1C(=O)c1ccc([N+](=O)[O-])cc1 | 192 to 195 |
| O=C(NCCCCC1CCSS1)NS(=O)(=O)NC(=O)NCCCCC1CCSS1 (centres undefined) | 153 to 156 |
| CC(c1ccccc1[N+](=O)[O-])S(N)(=O)=O (centres undefined) | 107 to 109 |
| O=C(NCCCCO)c1ccc2c(c1)OCO2 | 95 to 98 |
| CCON=C(CC)C1=C(O)CC(c2ccc(NC(C)=O)cc2)CC1=O (centres undefined) | 135 to 136 |
| Cc1c(OCCCSc2ccc3ncc([N+](=O)[O-])n3n2)ccnc1CO | 135 to 136 |
| COc1cc(C=C2COCC3=C2N=C2SCCN2C3c2cc(OC)c(OC)c(OC)c2)cc(OC)c1OC (centres undefined) | 153 to 155 |
| CC(C)c1nc(CCO)n(C)c1Sc1cc(Cl)cc(Cl)c1 | 177 to 178 |
| CCOC(=O)C(=O)Nc1cc2[nH]c(=O)c(=O)n(C3CCCCC3)c2cc1[N+](=O)[O-] | 260 |
| CC1(C)O[C@@H](CC(=O)O)C[C@@H](C=Cc2ccccc2)O1 (relative stereo) | 153 to 155 |
| CCCCCN1CC[C@@H](c2ccccc2Cl)[C@H](CO)C1 (racemic) | 101 to 102 |
| C=CC(=O)NC(=O)CC(C)=O | 128 to 130 |
| CCOC(=O)/C=C/c1ccc(OC(C)C)cc1Oc1ncc(C(F)(F)F)cc1Cl | 84.5 to 85 |
| CCOC(=O)c1ncn(-c2nn(C)cc2Cl)c1S(N)(=O)=O | 167 to 168 |
| COc1ccc2c(Br)csc2c1 | 62 |
| O=C(O)C=Cc1cc([N+](=O)[O-])c(F)cc1Cl | 164 to 171 |

| Compound | melting point [°C] |
| --- | --- |
| CC12CC3(C)CC(Br)(C1)CC(Br)(C2)C3 | 115 to 116 |
| COC(=O)c1cscc1NC(=O)COc1ccc(Cl)c(Cl)c1 | 179 to 182 |
| O=C(O)[C@@H]1CC[C@H](c2ccccc2)N1C(=O)CCS | 61 to 64 |
| C=C1c2ccccc2C2(CCN(C)CC2)c2cccc(O)c21 | 117 to 120 |
| COc1cc2c(c3c1OC(C)(C)C3)C(c1cccc(NC(=O)NCCCl)c1)=NC(C)(C)C2 | 147 to 150 |
| CC(C)(C)c1cc(C(=O)OCCC(=O)Oc2ccc(Cl)c(N)c2)cc(C(C)(C)C)c1O | 122 to 124 |
| CCOC(=O)c1cnc2ccc(C)cc2c1O | > 260 |
| CCCC1=C(C(=O)OCC)C(c2ccncc2)c2c[nH]nc2N1 (centres undefined) | 266 |
| O=C(Nc1cccc2c1C(=O)c1c-2n[nH]c1-c1ccc(C(=O)N2CCN(CCO)CC2)s1)NN1CCOCC1 | 186 to 187 |
| O=C(CCc1ccc(F)cc1)Cn1ccnc1 | 69 to 70 |
| CCOC(=O)CCCCCCOc1cc2c(c(Cl)c1Cl)C(=O)C(C)(C1CCCC1)C2 (centres undefined) | 47 to 50 |
| COc1cc(-c2nn(C)c(C(F)(F)F)c2Br)c(F)cc1N | 85 to 86 |
| CC(=O)NCC[C@@H]1CCc2ccc3nn(C)c(F)c3c21 | 155 to 156 |
| COC(=O)C(C)CNc1nc2ccccc2o1 (centres undefined) | 89 to 90 |
| C[C@@H]1C[C@H](C)CN(S(=O)(=O)c2ccc(Cl)c(C(=O)NCC(=O)O)c2)C1 | 190 to 192 |
| CC(=O)Nc1cc(C2=NNC(=O)NC2C)ccc1Cl (centres undefined) | 251 to 253 |
| O=C(O)CSc1nccn1Cc1cc(F)cc(F)c1 | 101 to 103 |
| Cc1csc2c(C=O)ncn12 | 172 to 175 |
| COc1cc(C=C2SC(N3CCCC3)=NC2=O)cc(-c2ccc(O)c(C34CC5CC(CC(C5)C3)C4)c2)c1O | 353 to 355 |
| Fc1ccc(Cn2c(NC3CCN(CCc4cn5ccsc5n4)CC3)nc3ccccc32)cc1 | 223 |
| CC12CCC3c4ccc(O)cc4CCC3C1CC(O)C2=C(F)F (centres undefined) | 225 to 227 |

The next lines start with the values.

| melting point [°C] | Compound |
| --- | --- |
| 236 to 237 | CSc1nn2c(N3CCNCC3)cc(C(C)(C)C)nc2c1S(=O)(=O)c1ccccc1 |
| 228 to 230 | CCCc1ncc(/C=C2\C(=O)N(CC(=O)OC)c3cccc(C)c32)n1Cc1ccc(C(=O)OC)cc1 |
| 141 to 142 | CN(C)CCCn1nnc(-c2ccc3c(c2)S(=O)(=O)c2ccccc2C3=O)n1 |
| 229 to 231 | COc1ccc(-n2c(=O)c(CCCO)c(O)c3cccnc32)cc1 |
| 121 to 124 | COc1ccc(C)cc1NC(=O)Nc1ccc(N2CCN(C(=O)Nc3cc(OCCO)ccc3C)CC2)cc1 |
| 161 to 163 | CCCC(=O)c1cnc2c(OC)cccc2c1Nc1ccc(OC)cc1C |
| 148 | Nc1cc(N2C(=O)c3ccccc3C2=O)c(F)cc1Cl |
| 78 to 79 | CC(C)=CCn1c(-c2c(F)cccc2F)nc2c(C)cccc21 |
| 247 | CC(=O)N1CCN(C2CCN(c3ccc(NC(=O)c4cnn(-c5ccc(Cl)cc5)c4C)cc3C#N)CC2)CC1 |
| 297 to 298 | COc1ccc(-n2cc(C(=O)O)c3nc4c(C)cccc4cc3c2=O)cc1OC |
| 78 to 80 | CN1C(=O)CC[C@]2(C)c3ccc(SCc4nc5ccccc5s4)cc3CC[C@@H]12 |
| 173 to 175 | Nc1ncnc2c1c(-c1cccc(Cl)c1)cn2-c1ccccc1 |
| 115 to 117 | COc1ccc(N2C(=O)Cc3ccccc32)cc1 |
| 89 to 91 | C#CCOCc1nnc(Nc2ccc3c(c2)ncn3-c2ccccc2)c2ccccc12 |
| 144 to 145 | CC(=O)OCC(=O)c1cc2c(s1)CCC1CC(=O)N(c3ccc(C)cc3)N=C21 (centres undefined) |
| 65 to 67 | O=C(Oc1ccccc1)c1cc(Br)nn1-c1ncccc1Cl |
| 195 to 198 | O=C(Nc1ccccc1)Nc1cnc(-c2ccccc2)nc1-c1ccccc1Cl |
| 193 to 194 | Cn1cc(C(=O)NCc2ccc(Cl)cc2)c(=O)c2cc(CN3CCOc4ccccc43)ccc21 |
| 58 to 60 | CC(C)n1c(Cl)nc2ccccc21 |

| melting point [°C] | Compound |
| --- | --- |
| 150 to 152 | CC(C)(C)[C@H]1Cn2c(nc3c(C4OCCO4)cccc32)-c2ccccc2O1 |
| 174 to 176 | Cc1cc(Nc2ccc(O)cc2)c2[nH]ncc2n1 |
| 101 | CN(C(=O)COc1nnc(Cl)s1)c1ccccc1 |
| 233 | O=C(O)c1cnn2c(C(F)F)cc(-c3ccc(C(F)(F)F)c(F)c3)nc12 |
| 91 to 92 | Fc1cccc(COc2nnc(-c3ccc4c(c3)CCO4)o2)c1 |
| 207 to 208 | Cc1nnc(-c2ccc3occ(-c4ccc(C=O)c(F)c4)c3c2)o1 |
| 138 to 140 | CS(=O)(=O)Nc1cc(O)ccc1Oc1ccccc1 |
| 131 to 132 | COc1ccc(-c2nnn(-c3ccc(C(F)(F)F)cc3Cl)c2CO)cc1 |
| 131 to 132 | O=C(O)c1nc(Sc2ccccc2)ccc1Sc1ccccc1 |
| > 300 | CCCn1cc2c(C3C(=O)Nc4ccc(C#N)cc43)nc(Cl)nc2n1 (centres undefined) |
| 220 to 223 | CCOCc1nc2c(N)nc3ccccc3c2n1CCCC(C)=NO |
| 97 to 98 | CC1(CCC#N)N=C(c2ccc(Cl)cc2)OC1=O (centres undefined) |
| 73 to 74 | CCN(CC)C(=O)CCCOc1ccc(Oc2ccccc2)cc1 |
| 231 to 232 | Cc1n[nH]cc1-c1cccc2c1nnn2-c1ccnc(NC2CCN(S(C)(=O)=O)CC2)n1 |
| 213 to 216 | CCCc1cc(N2CCC(NCC(O)c3cnc4ccccc4c3)CC2)nc2sc(C(N)=O)c(N)c12 (centres undefined) |
| 80 to 82 | COc1cc2c(Oc3cccc4[nH]ccc34)ncnc2cc1OCCCN1CCCCC1 |
| 153 to 165 | COc1ccc(C)cc1-c1ccc(S(=O)(=O)N2c3ccccc3CC2C(=O)NCc2ccc(C(=O)O)cc2)cc1 (centres undefined) |
| 146 to 147 | CCCc1nnc(/C=C/c2cn(Cc3ccccc3)nc2OCc2ccc(OCc3nc(-c4ccco4)oc3C)c(OC)c2)o1 |
| 76 to 77 | c1ccc(CSc2nccn2-c2ccccn2)cc1 |

| melting point [°C] | Compound |
| --- | --- |
| 208 to 228 | O=C(CNC(=O)C(Cc1ccccc1)P(=O)(O)O)OCc1ccccc1 (centres undefined) |
| 237 | Cc1cc(OCc2ccc(-c3ccccc3-c3nnn[nH]3)cc2)c(C(=O)O)c(C)n1 |
| 255 to 257 | N#Cc1ccc(-c2cnc3[nH]c(=O)n(CC4CCCCC4)c3n2)cc1 |
| 220 | Cc1ccc(-c2cc(C(F)(F)F)n3cnc(C#N)c3n2)cc1C(F)(F)F |
| 70 to 80 | COc1ccc(C(O)c2cccc(OCc3ccc4ccccc4n3)c2)cc1 (centres undefined) |
| 106 | CCCCNC(=O)N(C)c1cccc(-c2ccc(C=C(OC)C(=O)O)cc2OCCCC)c1 |
| 76 to 79 | O=C1OC(CCCCl)CN1c1ccccc1 (centres undefined) |
| 202 to 205 | CC1(C)CCC(C)(C)c2cc(OCc3ccc(CC(N)=O)cc3)ccc21 |
| 138 to 140 | N#Cc1ccc(CCCN2C(=O)c3ccccc3C2=O)cc1 |
| 98 to 100 | COC(=O)Cc1c(C)n(Cc2ccccc2OC)c2ccc(OC)cc12 |
| 125 to 126 | CC(C)n1nc(-c2c(-c3ccccc3)nn3ccc(OCCCN(C)C)cc23)ccc1=O |
| 60 to 67 | COC(=O)Cc1ccc(CNC(=O)C2Cc3ccccc3N2S(=O)(=O)c2ccc(-c3cccc(C(F)(F)F)c3)cc2)cc1C (centres undefined) |
| 154 to 155 | COC(=O)c1ccc(COc2ccc3cc(-c4ccc(-c5ccccc5)n4Cc4ccc(C(F)(F)F)cc4)ccc3c2)cc1 |
| 214 to 217 | CCOC(=O)c1ncc2[nH]c3ccc(-n4cccc4)cc3c2c1C |
| 204 to 206 | CC(=O)OCc1c(-c2ccccc2)oc2c(CO)cccc2c1=O |
| 308 to 310 | O=C1CC(c2ccc(Cl)cc2Cl)Cc2[nH]c3ccc(Cl)cc3c(=O)c21 (centres undefined) |
| 138 to 140 | COc1cc(C(C)=O)ccc1OCCCN1CCN(c2nn(C(=O)c3ccccc3)c3cccc(F)c23)CC1 |
| 209 to 213 | CCOc1ccc(-n2c(-c3ccc(SC)cc3)nc(SC)c(C#N)c2=O)cc1 |
| 44 to 46 | CCc1c(OC)c(C)c(OC)c2c1C(=O)N(CSc1nnnn1-c1ccccc1)S2(=O)=O |
